Molecular target: Inward rectifier potassium channel 2 (Homo sapiens) (UniProt P63252)
Assay: Inhibition of Kir2.1 (unknown origin) by patch clamp method

Inward rectifier potassium channel 2 (Homo sapiens), sequence (P63252 whole entry, looked up): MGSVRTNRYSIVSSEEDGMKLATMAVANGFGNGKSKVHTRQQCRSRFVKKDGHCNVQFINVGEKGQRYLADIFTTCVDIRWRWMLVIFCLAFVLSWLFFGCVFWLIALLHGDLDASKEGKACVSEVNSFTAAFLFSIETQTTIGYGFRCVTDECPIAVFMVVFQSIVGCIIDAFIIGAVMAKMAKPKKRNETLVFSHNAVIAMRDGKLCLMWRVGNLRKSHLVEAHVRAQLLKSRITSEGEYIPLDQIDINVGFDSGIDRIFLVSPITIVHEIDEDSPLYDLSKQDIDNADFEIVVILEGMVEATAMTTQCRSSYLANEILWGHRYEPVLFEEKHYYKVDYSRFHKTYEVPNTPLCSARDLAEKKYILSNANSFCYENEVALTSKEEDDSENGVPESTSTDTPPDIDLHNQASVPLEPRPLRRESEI

In the case of C[C@H](CC[C@](C)(O)C(F)(F)F)[C@H]1CC[C@H]2[C@@H]3CC=C4C[C@@](C)(O)CC[C@]4(C)[C@H]3CC[C@]12C [Dalzanemdor], the IC50 is reported as > 30 µM.
